Assay results reported in ChEMBL document CHEMBL3233009, “Pyrazoles as non-classical bioisosteres in prolylcarboxypeptidase (PrCP) inhibitors” (Bioorg Med Chem Lett, 2014).

Experiments:
[1] = molecular target: T1, Lysosomal Pro-X carboxypeptidase (Mus musculus, UniProt Q7TMR0); test: Inhibition of recombinant mouse PrCP using Mca-Ala-Pro-Lys(Dnp)-OH as substrate after 30 mins by continuous fluorometric assay
T1 sequence (Q7TMR0 whole entry): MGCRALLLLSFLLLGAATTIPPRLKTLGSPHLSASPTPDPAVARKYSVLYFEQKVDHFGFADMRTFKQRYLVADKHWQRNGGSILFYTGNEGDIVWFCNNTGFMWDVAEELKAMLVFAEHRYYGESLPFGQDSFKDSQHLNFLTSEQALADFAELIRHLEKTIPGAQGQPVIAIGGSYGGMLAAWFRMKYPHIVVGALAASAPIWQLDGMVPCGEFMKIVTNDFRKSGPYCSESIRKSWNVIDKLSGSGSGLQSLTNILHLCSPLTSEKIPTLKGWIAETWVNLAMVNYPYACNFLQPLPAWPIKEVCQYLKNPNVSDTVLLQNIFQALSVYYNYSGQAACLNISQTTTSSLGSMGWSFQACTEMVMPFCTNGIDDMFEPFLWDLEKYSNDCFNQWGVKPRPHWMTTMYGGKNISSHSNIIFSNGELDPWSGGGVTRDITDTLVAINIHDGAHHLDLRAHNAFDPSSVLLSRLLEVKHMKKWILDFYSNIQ

[2] = Fraction unbound in human 100% plasma; type: ADME, cell-free
[3] = Fraction unbound in mouse 100% plasma; type: ADME, cell-free
[4] = Oral bioavailability in C57Bl/6 mouse at 2 mg/kg; type: ADME, organism-based; settings: in vivo
[5] = Volume of distribution in C57Bl/6 mouse at 1 mg/kg, iv and 2 mg/kg, po; type: ADME, organism-based; settings: in vivo
[6] = Half life in C57Bl/6 mouse at 1 mg/kg, iv and 2 mg/kg, po; type: ADME, organism-based; settings: in vivo
[7] = Clearance in C57Bl/6 mouse at 1 mg/kg, iv and 2 mg/kg, po; type: ADME, organism-based; settings: in vivo
Mus musculus [8] = test: Dose normalized AUC in C57Bl/6 mouse at 2 mg/kg, po; type: ADME, organism-based; set-up: dose 2 mg/kg, route oral; settings: in vivo
Mus musculus [9] = test: Dose normalized AUC in C57Bl/6 mouse at 10 mg/kg, po; type: ADME, organism-based; set-up: dose 10 mg/kg, route oral; settings: in vivo
[10] = Clearance in C57Bl/6 mouse at 2 mg/kg, iv and 10 mg/kg, po; type: ADME, organism-based; settings: in vivo
[11] = Volume of distribution in C57Bl/6 mouse at 2 mg/kg, iv and 10 mg/kg, po; type: ADME, organism-based; settings: in vivo
[12] = Oral bioavailability in C57Bl/6 mouse at 10 mg/kg; type: ADME, organism-based; settings: in vivo
[13] = Half life in C57Bl/6 mouse at 2 mg/kg, iv and 10 mg/kg, po; type: ADME, organism-based; settings: in vivo

SMILES	IC50 [1]	fraction unbound [2]	fraction unbound [3]	other results
Clc1ccc(-c2cc([C@@H]3CC[C@@H](N4CCOCC4)C[C@H]3c3ccc(Br)cc3)[nH]n2)cc1	220 nM	–	–	–
O=C([C@@H]1CC[C@@H](NCc2ccc(Cl)cc2)C[C@H]1c1ccc(F)cc1)N1CC(c2ccccc2)(c2ccccc2)C1	4.7 nM	–	–	–
Fc1ccc([C@@H]2CN(CCc3ccccc3)CC[C@H]2c2cc(-c3ccc(Cl)cc3)n[nH]2)cc1.O=C(O)C(F)(F)F	2.2 nM	0.03	< 0.01	bioavailability [4]: 33%; Vd [5]: 13.3 L/kg; half-life [6]: 4.8 h; clearance [7]: 28.9 mL/min/kg; AUC/dose (Mus musculus [8]): 0.413 µM·kg·h/mg
Clc1ccc(-c2cc(C3(c4ccccc4)CCN(CCc4ccccc4)CC3)[nH]n2)cc1	–	0.03	< 0.01	–
Fc1ccc(-c2cc(C3(c4ccccc4)CCN(CCc4ccccc4)CC3)[nH]n2)cc1	23 nM	0.07	< 0.01	–
Cn1nc(-c2ccc(F)cc2)cc1C1(c2ccccc2)CCN(CCc2ccccc2)CC1	3.6 nM	< 0.01	< 0.01	–
Cn1nc(-c2ccc(F)cc2)cc1C1(c2ccccn2)CCN(CCc2ccccc2)CC1	–	0.01	0.04	–
Fc1ccc([C@@H]2CN(CCc3ccc(Cl)cc3)CC[C@H]2c2cc(-c3ccc(Cl)cc3)n[nH]2)cc1 (racemic)	20 nM	–	–	–

Second part, led by results:

IC50 [1]	fraction unbound [2]	fraction unbound [3]	SMILES	other results
24 nM	–	–	Fc1ccc([C@H]2CN(CCc3ccccc3)CC[C@H]2c2cc(-c3ccc(Cl)cc3)n[nH]2)cc1	–
5.9 nM	–	–	OC(CN1CC[C@@H](c2cc(-c3ccc(Cl)cc3)n[nH]2)[C@H](c2ccc(F)cc2)C1)c1ccccc1 (some centres undefined)	–
30 nM	–	–	O=C(CN1CC[C@@H](c2cc(-c3ccc(Cl)cc3)n[nH]2)[C@H](c2ccc(F)cc2)C1)c1ccccc1	–
–	0.02	0.04	Cc1ccccc1[C@@H]1C[C@H](N2CCOCC2)CC[C@H]1C(=O)N1CC(c2ccccc2)(c2ccccc2)C1.O=C(O)C(F)(F)F	AUC/dose (Mus musculus [9]): 0.037 µM·kg·h/mg; clearance [10]: 72.2 mL/min/kg; Vd [11]: 10.8 L/kg; bioavailability [12]: 7.8%; half-life [13]: 1.7 h
–	< 0.01	< 0.01	Fc1ccc([C@@H]2CN(Cc3ccc(Cl)cc3)CC[C@H]2c2cc(-c3ccc(Cl)cc3)n[nH]2)cc1 (racemic)	–
56 nM	–	–	Fc1ccc([C@@H]2CN(CCC(F)(F)F)CC[C@H]2c2cc(-c3ccc(Cl)cc3)n[nH]2)cc1 (racemic)	–
